The values that follow come from EP1277738B1, “CONDENSED HETEROARYL DERIVATIVES” (Astellas Pharma Inc., priority 2000, dated 2001).

Sequence of PI3K (p110α subtype) (P32871 whole entry): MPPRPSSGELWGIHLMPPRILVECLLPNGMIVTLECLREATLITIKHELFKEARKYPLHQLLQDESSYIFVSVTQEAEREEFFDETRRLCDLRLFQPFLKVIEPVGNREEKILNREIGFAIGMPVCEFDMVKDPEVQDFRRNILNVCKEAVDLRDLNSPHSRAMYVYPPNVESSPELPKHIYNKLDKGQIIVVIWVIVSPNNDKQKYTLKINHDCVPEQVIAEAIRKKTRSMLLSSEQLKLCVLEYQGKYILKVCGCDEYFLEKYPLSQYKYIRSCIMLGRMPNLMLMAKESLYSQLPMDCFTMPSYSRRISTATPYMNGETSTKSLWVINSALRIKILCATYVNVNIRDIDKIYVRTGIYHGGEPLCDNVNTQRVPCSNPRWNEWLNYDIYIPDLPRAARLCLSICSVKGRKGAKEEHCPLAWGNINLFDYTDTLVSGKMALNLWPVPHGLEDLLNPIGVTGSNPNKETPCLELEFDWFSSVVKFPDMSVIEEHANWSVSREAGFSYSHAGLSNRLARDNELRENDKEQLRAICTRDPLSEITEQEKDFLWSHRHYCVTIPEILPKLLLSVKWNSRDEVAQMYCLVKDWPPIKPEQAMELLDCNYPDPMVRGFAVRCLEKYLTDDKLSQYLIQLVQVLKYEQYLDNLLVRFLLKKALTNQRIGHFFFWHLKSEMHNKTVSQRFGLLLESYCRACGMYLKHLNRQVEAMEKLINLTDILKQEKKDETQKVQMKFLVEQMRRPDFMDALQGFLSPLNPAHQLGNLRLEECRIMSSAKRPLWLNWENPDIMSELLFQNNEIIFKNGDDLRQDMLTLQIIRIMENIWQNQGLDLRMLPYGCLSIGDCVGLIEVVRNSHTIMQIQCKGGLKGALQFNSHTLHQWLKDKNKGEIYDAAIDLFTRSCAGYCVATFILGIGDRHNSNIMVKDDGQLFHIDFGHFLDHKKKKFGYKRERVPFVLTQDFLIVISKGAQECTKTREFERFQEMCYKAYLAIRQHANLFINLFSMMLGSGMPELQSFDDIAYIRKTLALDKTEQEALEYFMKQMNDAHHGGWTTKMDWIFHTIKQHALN

The subject of the first assay is HCT116 cells. As to the kind of experiment: Colon cancer cell growth inhibition (Alamar Blue). In kind it is cell-based. The note with it: HCT116 colon cancer cell line, incubation over 72 hours; result in words. The method, then:
Test Example 2 Colon cancer cell growth inhibition
HCT116 cells from a colon cancer cell line were cultured in McCoy's 5A medium (GIBCO) supplemented with 10% fetal bovine serum. HCT116 cells were inoculated on a 96 well plate (5000 cells/well) followed by overnight incubation. The test compound diluted with the medium was added to the medium in a final concentration of […] (final DMSO concentration, 1%). After incubation over 72 hours, Alamar Blue reagent was added to the medium. Two hours after the addition, a ratio of fluorescent intensity at an excitation wavelength of 530 nm to that at an emission wavelength of 590 nm was measured to determine the IC50. Co 14, Co 24, Co 25, Co 31, Co 46 and Co 47 of the present invention exerted an excellent cancer cell growth inhibition activity.
For orientation: Resazurin is reduced to fluorescent resorufin, in cell work by metabolically active cells.
In the case of `CC(=O)Nc1cccc(-c2nc(N3CCOCC3)c3oc4ncccc4c3n2)c1` [Co 24], the “cancer cell growth inhibition activity” value is given as “excellent”.

The next assay has as its target PI3K (p110α subtype) (Bos taurus, UniProt P32871). As to the kind of experiment: Inhibition of PI3K (p110α subtype). The assay is classed as biochemical. The note with it: bovine p110α from baculovirus expression system; PI substrate, [γ-32P] ATP, 37°C for 15 minutes. The method, then: Test Example 1 Inhibition of PI3K (p110α subtype)
Inhibition was determined using enzyme (bovine p110α) prepared in the baculovirus expression system. Bovine p110 was prepared according to a modification from the method by I. Hiles et al., Cell, 70, 419 (1992). Each compound to be assayed was dissolved in DMSO and the obtained 10 mM DMSO solution was serially diluted with DMSO.
The compound (0.5µl) to be assayed and enzyme were mixed in 25µl of buffer solution (40 mM Tris-HCl (pH 7.4), 200 mM NaCl, 2 mM dithiothreitol, 5 mM MgCl2). Then, 25µl of 5 mM Tris-HCl (pH 7.4) buffered solution supplemented with 10µg PI (Sigma), 2µ Ci [γ-^32P] ATP (Amersham Pharmacia) and 80µM nonradiolabeled ATP (Sigma) was added to the mixture to initiate the reaction. After reacting at 37°C for 15 minutes, 200µl of 1M HCl and 400µl of CHCl3 / MeOH (1 : 1) were added to the reaction mixture. The resulting mixture was stirred and then centrifuged. After the organic layer was again extracted twice with 150µl of MeOH / 1M HCl (1 : 1). The radioactivity was measured using Cerenkov light.
In general, IC50 refers to the concentration that inhibits the measured activity by half. The compound `CC(=O)Nc1cccc(-c2nc(N3CCOCC3)c3oc4ncccc4c3n2)c1` [Co 24] registered an IC50 of less than 1000 nM. Compound `O=C(Nc1cccc(-c2nc(N3CCOCC3)c3oc4ncccc4c3n2)c1)c1ccccn1` [Co 10] came in with an IC50 of less than 1000 nM.

`Nc1ccc(C(=O)Nc2cccc(-c3nc(N4CCOCC4)c4oc5ncccc5c4n3)c2)cn1` [Co 17, 6-amino-3'-.(4-morpholinopyrido[3',2':4,5]furo[3,2-d]pyrimidin-2-yl)nicotinanilide]: the IC50 is less than 1000 nM.

In the next assay the test system is A375 cells. The assay can be described thus: Melanoma cell growth inhibition (Alamar Blue). In kind it is cell-based. The note with it: Homo sapiens, A-375, 46 h. The method, then: A375 cells from a melanoma cell line were cultured in DMEM medium (GIBCO) supplemented with 10% fetal bovine serum. A375 cells at 10,000 cells/100µl were added to a 96 well plate which contained 1µl/well of the test compounds (final concentration of 0.001 - 30µM). After incubation for over 46 hours, Alamar Blue reagent was added to the medium (10µl/well).
In turn, `Oc1cccc(-c2nc(N3CCOCC3)c3oc4ncccc4c3n2)c1` [Co 50, 3-(4-morpholinopyrido[3',2':4,5]furo[3,2-d]pyrimidin-2-yl)phenol] yielded an IC50 of 330 to 4260 nM.

The assay is the same for the next values; noted with them: Homo sapiens, A-375; A375 melanoma cell line, incubation for over 46 hours, 0.001 - 30µM; range is stated for the group of ten compounds; read-out: IC50.
In the case of `Nc1ccc(-c2nc(N3CCOCC3)c3oc4ncccc4c3n2)cc1` [Co 33, 4-(4-morpholinopyrido[3',2':4,5]furo[3,2-d]pyrimidin-2-yl)aniline], the IC50 was in the range of 330 to 4260 nM.

Regarding `COc1ccc2nc(-c3cccc(O)c3)nc(N3CCOCC3)c2c1` [Co 186, 3-(6-methoxy-4-morpholinoquinazolin-2-yl)phenol], the IC50 fell in the range of 330 to 4260 nM. The same measure, in the same setting: the result for `Oc1cccc(-c2nc(N3CCOCC3)c3ncccc3n2)c1` [Co 172, 3-(4-morpholinopyrido[3,2-d]pyrimidin-2-yl)phenol] reads 330 to 4260 nM; that for `Oc1cccc(-c2nc(N3CCOCC3)c3nccnc3n2)c1` [Co 191, 3-(4-morpholinopteridin-2-yl)phenol], 330 to 4260 nM; that for `Oc1cccc(-c2nc(N3CCOCC3)c3sccc3n2)c1` [Co 190, 3-(4-morpholinothieno[3,2-d]pyrimidin-2-yl)phenol], 330 to 4260 nM. In the case of `Oc1cccc(-c2nc(N3CCOCC3)c3cnccc3n2)c1` [Co 164, 3-(4-morpholinopyrido[4,3-d]pyrimidin-2-yl)phenol], the IC50 was in the range of 330 to 4260 nM. Same read-out and setting: the result for `c1cc(OCCN2CCNCC2)cc(-c2nc(N3CCOCC3)c3oc4ncccc4c3n2)c1` [Co 69, 4-morpholino-2-[3-(2-piperazin-1-ylethoxy)phenyl]pyrido[3',2':4,5]furo[3,2-d]pyrimidine] reads 330 to 4260 nM; that for `Oc1cccc(-c2nc(N3CCOCC3)c3ccncc3n2)c1` [Co 174, 3-(4-morpholinopyrido[3,4-d]pyrimidin-2-yl)phenol], 330 to 4260 nM.
